Tests used:
DNA topoisomerase I = conditions: background statement; cited from earlier work
[1] = test system: non-small cell lung carcinoma; test: clinical response, patient with metastatic non-small cell lung carcinoma, tumor size by CAT scan; assay type: in vivo, human; conditions: for response to pretreatment: pretreatment with VP-16 (etoposide) and cisplatin, same patient before topotecan
Description: One human patient with metastatic non-small cell lung carcinoma, who was refractory to pretreatment with VP-16 (etoposide) and cisplatin, received a course of therapy comprising intravenous administration of 1.5 mg of topotecan/m^2 of body surface area per day for five consecutive days. This course of therapy was repeated at least five more times at twenty-one day intervals (from the date of initiation of therapy) for a total of at least […] treatments. Tumor size regression was evaluated by CAT (computerized axial tomography) scan.

[2] = test system: non-small cell lung carcinoma; test: clinical response, second patient with non-small cell lung carcinoma; assay type: in vivo, human
[3] = qualitative statement; cited from earlier work
[4] = stability of diluted topotecan solutions in plastic bags at room temperature (percentage of initial topotecan remaining); assay type: physicochemical; conditions: 0 hrs
Description: Stability--Shelf life surveillance of the intact vials is ongoing. Because the single-use lyophilized dosage form contains no antibacterial preservatives, it is advised that the reconstituted solution be discarded eight hours after initial entry into the vial. Further dilutions of the reconstituted solution to concentrations of 0.02 mg/ml and 0.1 mg.ml in 5% Dextrose Injection, USP, ("D5W") or 0.9% Sodium Chloride Injection, USP, ("NS") in plastic bags stored at room temperature yielded the following stability results:
PERCENTAGE OF INITIAL TOPOTECAN REMAINING IN SOLUTION

Q: With `CC[C@@]1(O)C(=O)OCc2c1cc1n(c2=O)Cc2cc3ccccc3nc2-1` [camptothecin, reference compound] as the compound, how does the “inhibition of topoisomerase I” value (DNA topoisomerase I) read?
A: The value was “known to inhibit topoisomerase I”.

Q: With `N.N.[Cl][Pt][Cl]` [cisplatin] as the compound, how does the response to pretreatment [1] read?
A: Its response to pretreatment is “refractory”.

Q: For `COc1cc([C@@H]2c3cc4c(cc3[C@@H](O[C@@H]3O[C@@H]5CO[C@@H](C)O[C@H]5[C@H](O)[C@H]3O)[C@H]3COC(=O)[C@H]23)OCO4)cc(OC)c1O` [etoposide], which response to pretreatment [1] is on record?
A: The response to pretreatment was “refractory”.

Q: For `CC(O)CCC(=O)c1ccoc1` (stereo not drawn) [ipomeanol, reference compound], which “response to previous ipomeanol” value ([2]; same patient before topotecan) is on record?
A: Its value is “failed to respond”.

Q: With `CC[C@@]1(O)C(=O)OCc2c1cc1n(c2=O)Cc2cc3c(CN(C)C)c(O)ccc3nc2-1` [topotecan, (S)-9-dimethylaminomethyl-10-hydroxycamptothecin] as the compound, how does the “inhibition of topoisomerase I” value (DNA topoisomerase I) read?
A: Its value is “specific inhibitor of DNA topoisomerase I”.

Q: What about the “tumor size regression (CAT scan)” value ([1]; one patient refractory to VP-16 and cisplatin, i.v. 1.5 mg/m^2 per day, five consecutive days, repeated at twenty-one day intervals, after six treatment regimen) of the same compound?
A: The value was “a complete regression of the disease was observed”.

Q: And the “response (measurable tumor size regression)” value ([2]; one patient, prior radiation and ipomeanol, at least one course i.v. 1.5 mg/m^2 per day, five consecutive days)?
A: The value was “a temporary response (measurable tumor size regression) was observed”.

Q: And the water solubility [3]?
A: The water solubility was “water-soluble”.

Q: And the “Percentage of initial topotecan remaining in solution” value ([4]; D5W, 0.02 mg/ml)?
A: The value was 100.00%.

Q: And the “Percentage of initial topotecan remaining in solution” value ([4]; D5W, 0.1 mg/ml)?
A: Its value is 100.00%.

Q: And the “Percentage of initial topotecan remaining in solution” value ([4]; NS, 0.02 mg/ml)?
A: Its value is 100.00%.

Q: And the “Percentage of initial topotecan remaining in solution” value ([4]; NS, 0.1 mg/ml)?
A: The value was 100.00%.
